In patent US20040247639A1, “Novel methods and compositions for the treatment or prevention of dysmenorrhoea and menstrual side effects: the use of phospholipase inhibitors” (priority 2000, published 2004):
Where two headings read alike, the source gives them in different places. One block for each compound: values may come before it.

Columns and labels:
[1] = tested on: rat uterus; experiment: Rat uterine contractions, spontaneous and oxytocin-induced together; settings: for drug concentrations suppressing spontaneous and oxytocin-induced uterine contractions: rat uterine model; for EC50: Rattus norvegicus
Excerpt: (§1) To examine the potential benefit of PLA2 inhibitors in treating dysmenorrhoea in women, an in vitro model was developed which measured the force and frequency of contractions in a rat uterus. When removed from the rat and placed in an organ bath, the uterus contracts rhythmically. The force of contraction varies with the profile of sex hormones produced by the animal at the different stages of the sexual (oestrus) cycle. Levels of oestrogen and progesterone fluctuate throughout the sexual cycle. To ensure a reproducible model, rats were ovarectomised and oestrogen, progesterone, a combination of oestrogen and progesterone and an inert control substance were given to mimic different stages of the sexual cycle.
In this model the uterine contractions are stimulated by the synthesis and release of eicosanoids and other contractile mediators by cells in the uterus, which then act on the muscle cells in the uterine wall to cause contraction. […] Addition of oxytocin, a hormone synthesised in the pituitary gland, gives uterine contractions of greater force and frequency by increasing the release of eicosanoids (Wassdal, I et al, 1998, Acta Physiol Scand, 164: 47-52, Burns, P D et al, 1998, Domest Anim Endocrinol, 15: 477-487, Asselin, E et al, 1997, Endocrinology, 138: 4798-4805). There is a relationship between the stage of the sexual cycle and the sensitivity of the uterus to oxytocin (Engstrom, T et al., 1999, J. Endocrinol., 161: 403-411). It has been shown that the contractions can be reduced if the synthesis of the mediators is blocked.
(§2) Uteri were removed from rats, divided into 4 segments and placed in organ baths to measure force and frequency of contraction. Spontaneous contractions were measured, then each segment of uterus was challenged with oxytocin (1 μI.U. to 100 mI.U.). The force and frequency of contraction was measured after oxytocin addition and a concentration response curve generated. The drugs—either an sPLA2 inhibitor or a NSAID—was then added to the bath and allowed to equilibrate for 30 minutes. The drugs were tested at concentrations ranging from 1 nM to 10 μM with one piece of tissue per concentration. The tissue was then challenged with increasing concentrations of oxytocin to generate a second concentration-response curve. The EC50 concentrations in control and drug-treated tissue were determined from the curves and compared.

[2] = tested on: rat uterus; experiment: Oxytocin-challenged uterine work in uteri of ovarectomised, sex hormone-treated rats; design: maximum decrease in the intensity of the oxytocin response: dose or concentration left out as unconfirmed; settings: for maximum uterine work with oxytocin: hormone-treated group challenged with 100 mU oxytocin; for inhibition at 0.1 µM: 100 nM; for change of oxytocin EC50 values: 1 nM-1 μM
Excerpt: as §1
(§3) In a separate series of experiments, rats were ovarectomised then treated with sex hormones to ensure animals are at the same stage of the oestrus cycle. Uteri were removed from the rats 4 days after hormone treatment, allowed to equilibrate in the organ baths for 30 minutes, then the intensity of uterine contractions and frequency of the spontaneous contractions was measured. In the oestrogen-primed uteri, spontaneous uterine work was […], in progesterone-primed rats, 10±0.9 mNs^−1, in oestrogen plus progesterone-primed uteri, 9±1.5 mNs^−1 and in control uteri 7.9±0.6 mNs^−1.
Challenging with oxytocin caused an increase in uterine work over baseline spontaneous activity.
(§4) sPLA2 inhibitor 5 and ketoprofen were tested in the model to determine their ability to moderate both spontaneous contractions and contractile activity stimulated by oxytocin.

[3] = tested on: rat uterus; experiment: Spontaneous uterine work in uteri of ovarectomised, sex hormone-treated rats; settings: for spontaneous uterine work: uteri removed 4 days after hormone treatment of ovarectomised rats, n=4-5
Excerpt: as §1, §3, §4

[4] = molecular target: T1, type V human non-pancreatic sPLA2 (Homo sapiens, UniProt P39877); settings: Chen, Y. et al, 1998; cited from earlier work
T1 sequence (P39877 21-138): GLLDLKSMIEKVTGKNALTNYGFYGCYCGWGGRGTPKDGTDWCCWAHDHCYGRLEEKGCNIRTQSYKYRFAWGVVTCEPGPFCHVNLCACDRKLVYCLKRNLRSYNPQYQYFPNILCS

[5] = tested on: rat uterus; experiment: Oxytocin-induced contractions of rat uterus in organ bath (naturally-cycling rats)
Excerpt: as §1, with “To ensure a reproducible model, rats were ovarectomised and oestrogen, progesterone, a combination of oestrogen and progesterone and an inert control substance were given to mimic different stages of the sexual cycle.” left out
(§5) In this model the uterine contractions are stimulated by the synthesis and release of eicosanoids and other contractile mediators by cells in the uterus, which then act on the muscle cells in the uterine wall to cause contraction. Compounds 5 and 9 were tested for their ability to inhibit spontaneous and oxytocin-induced contractions of a female rat uterus (described ahead). Addition of oxytocin, a hormone synthesised in the pituitary gland, gives uterine contractions of greater force and frequency by increasing the release of eicosanoids (Wassdal, I et al, 1998, Acta Physiol Scand, 164: 47-52, Burns, P D et al, 1998, Domest Anim Endocrinol, 15: 477-487, Asselin, E et al, 1997, Endocrinology, 138: 4798-4805). There is a relationship between the stage of the sexual cycle and the sensitivity of the uterus to oxytocin (Engstrom, T et al., 1999, J. Endocrinol., 161: 403-411). It has been shown that the contractions can be reduced if the synthesis of the mediators is blocked.
as §2

[6] = tested on: rat uterus; experiment: Spontaneous contractions of rat uterus in organ bath (naturally-cycling rats)
Excerpt: as §1, with “To ensure a reproducible model, rats were ovarectomised and oestrogen, progesterone, a combination of oestrogen and progesterone and an inert control substance were given to mimic different stages of the sexual cycle.” left out
as §5, §2

[7] = tested on: monocyte leukotriene release; settings: Cha, 1996; cited from earlier work
[8] = molecular target: T2, human non-pancreatic secretory PLA2 (type IIa) (Homo sapiens, UniProt P14555); experiment: Mixed micelle colorimetric assay for inhibition of human non-pancreatic sPLA2 (type IIa); format: biochemical; settings: thio-PC/Triton X-100 mixed micelles, 37° C., Dixon plot (FIG. 3); read-out: IC50 against human non-pancreatic sPLA2 (type IIa)
T2 sequence (P14555 21-144): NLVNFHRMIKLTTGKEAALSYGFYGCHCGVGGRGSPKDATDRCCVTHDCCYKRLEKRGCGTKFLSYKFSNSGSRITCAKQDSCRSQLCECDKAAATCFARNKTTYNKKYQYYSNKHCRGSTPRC
Procedure: Reagents were obtained commercially in the sPhospholipase A2 Assay Kit, Cayman Chemical Company MI USA. Buffer (25 mM Tris HCl at pH 7.5, 1 mg/mL BSA, 0.3 mM Triton X-100, 100 mM KCl, 10 mM CaCl2), substrate (diheptanoyl thio-phosphatidyl choline), DTNB (5,5′-dithiobis(2-nitrobenzoic acid)) and a 96 well plate were all provided. Recombinant hIIa-PLA2 was provided by the Garvan Institute for Medical Research. […] Standard inhibitor solutions were prepared from anhydrous DMSO. All samples were run in triplicate including the blank and control samples.
[…] Thio-PC is processed by s-PLA2 and the free thiol produced is detected with DTNB (Ellman's Reagent). 5-Thio-2-nitrobenzoic acid is detected spectrophotometrically at […]. IC50's were determined by assaying inhibitors at a range of concentrations.

[9] = Table 1, rat uterus model, read-out: ED50 Oxytocin-induced contractions
[10] = range over spontaneous and oxytocin-induced contractions, read-out: EC50, inhibition of uterine contractions
[11] = Table 1, rat uterus model, read-out: ED50 Spontaneous contractions
[12] = Rattus norvegicus, Oestrogen (O) group, mean ± SEM, read-out: maximum inhibition of uterine work, oxytocin challenge
[13] = Rattus norvegicus, Vehicle group, mean ± SEM, read-out: maximum inhibition of uterine work, oxytocin challenge
[14] = Table 1, rat uterus model, NSAIDs

Compound: COc1ccc2cc([C@H](C)C(=O)O)ccc2c1 [naproxen, reference compound]
- drug concentrations suppressing spontaneous and oxytocin-induced uterine contractions [1]: micromolar to millimolar

Compound: oestrogen
- maximum uterine work with oxytocin [2]: 15.7 mNs^−1
- spontaneous uterine work [3]: 7.2±1.4 mNs^−1

Compound: CC(=O)[C@H]1CC[C@H]2[C@@H]3CCC4=CC(=O)CC[C@]4(C)[C@H]3CC[C@]12C [progesterone]
- maximum uterine work with oxytocin [2]: 0.9 mNs^−1
- spontaneous uterine work [3]: 10±0.9 mNs^−1

- EC50 [5, 9]: 200 nM
- EC50 ([1]; FIG. 6, n=2, read-out: EC50, spontaneous contraction and oxytocin induced contractions in rat uterus): ~100 nM
- EC50 [1, 10]: 80 to 200 nM
- EC50 [6, 11]: 80 nM
Compound: Cc1c(CC(N)=O)c2cc(OCCCP(=O)(O)O)ccc2n1Cc1ccccc1 [Compound 9, [3-(1-Benzyl-3-carbamoylmethyl-2-methyl-1H-indol-5-yloxy)-propyl]-phosphonic acid]
- IC50 [4]: 36 nM

- change of oxytocin EC50 values ([2]; oestrogen and progesterone treated uteri, n=5): did not inhibit
- change of oxytocin EC50 values ([2]; oestrogen treated uteri, n=4): did not alter
- IC50 [8]: 42 nM
- EC50 ([5]; Rattus norvegicus, FIG. 5, n=3, read-out: ED50, uterine contractions induced by oxytocin): 20 nM
- EC50 [5, 9]: 20 nM
- EC50 [1, 10]: 1 to 20 nM
- melting point: 89 to 91.5 °C
- EC50 ([6]; Rattus norvegicus, FIG. 4, n=3, read-out: EC50, spontaneous activity of rat uteri in the organ bath): 30 nM
- EC50 [6, 11]: 30 nM
Compound: O=C(O)CC[C@@H](CSc1ccc(Cc2ccccc2)cc1)NC(=O)CCCCCCc1ccccc1 [Compound 5, (S)-5-(4-Benzyl-phenylsulfanyl)-4-(7-phenyl-heptanoylamino)-pentanoic acid]
- IC50 [7]: 350 nM
- inhibition at 0.001 µM ([2]; Rattus norvegicus, O + P group, 1 nM, mean ± SEM, read-out: maximum inhibition of uterine work, oxytocin challenge): 62%
- inhibition at 0.1 µM [2, 12]: 34%
- inhibition at 0.01 µM ([2]; Rattus norvegicus, Progesterone (P) group, 10 nM, mean ± SEM, read-out: maximum inhibition of uterine work, oxytocin challenge): 65%
- inhibition at 0.1 µM [2, 13]: 40%
- maximum decrease in the intensity of the oxytocin response ([2]; oestrogen treated uteri): 34%±5%
- effect on spontaneous activity ([3]; oestrogen and progesterone treated uteri, 1 nM-1 μM, n=5): did not inhibit
- effect on spontaneous activity ([3]; oestrogen treated uteri, 10 nM, n=4, P<0.05): inhibited
- effect on spontaneous activity ([3]; oil vehicle (control) rats, 1 nM, n=4, P<0.05): inhibited spontaneous activity
- effect on spontaneous activity ([3]; progesterone treated uteri, 1 nM-1 μM, n=5): did not significantly inhibit
- potency in inhibiting uterine contractions compared to NSAIDs [1]: 1,000 fold

- EC50 ([5]; Table 1, rat uterus model, NSAIDs, read-out: ED50 Oxytocin-induced contractions): 1000 nM
- EC50 ([6]; Table 1, rat uterus model, NSAIDs, read-out: ED50 Spontaneous contractions): 1000 nM
Compound: Cc1c(Nc2ncccc2C(=O)O)cccc1C(F)(F)F [Flunixin, flunixin meglumine, reference compound]
- effect on oxytocin-induced contractions ([5]; FIG. 7, n=3): no effect
- drug concentrations suppressing spontaneous and oxytocin-induced uterine contractions [1]: micromolar to millimolar
- effect on spontaneous rat uterine contractions ([6]; FIG. 7, 1 μM and 5 μM, n=3): reduced spontaneous contractions

Compound: CN1C(C(=O)Nc2ccccn2)=C(O)c2ccccc2S1(=O)=O [Piroxicam, piroxicam, reference compound]
- ED50 Oxytocin-induced contractions [5, 14]: No Effect
- drug concentrations suppressing spontaneous and oxytocin-induced uterine contractions [1]: micromolar to millimolar
- ED50 Spontaneous contractions [6, 14]: No effect

Compound: CC(C(=O)O)c1cccc(C(=O)c2ccccc2)c1 (stereo not drawn) [Ketoprofen, ketoprofen, reference compound]
- maximum inhibition of uterine work, oxytocin challenge ([2]; O + P group, up to 10 μM): no inhibitory effect
- inhibition at 0.1 µM [2, 12]: 29%
- inhibition at 0.1 µM ([2]; Rattus norvegicus, Progesterone (P) group, mean ± SEM, read-out: maximum inhibition of uterine work, oxytocin challenge): 84%
- inhibition at 0.1 µM [2, 13]: 79%
